Data from patent publication US11098038B2, “Imidazole-based anticancer agents and derivatives thereof, and methods of making and using same” (The University of Toledo, priority 2017, dated 2021).

Assays:
786-0 = assay: NCI 60 screen, 786-0; type: cell-based; details: Homo sapiens, Renal
Description: (§1) The compounds synthesized were tested at the National Cancer Institute (NCI) for anti-proliferative activity in the 60 human tumor cell line assay.

RPMI-8226 = assay: NCI 60 screen, RPMI-8226; type: cell-based; details: Homo sapiens, Leukemia
Description: as §1

TK-10 = assay: NCI 60 screen, TK-10; type: cell-based; details: Homo sapiens, Renal
Description: as §1

NCI/ADR-RES = assay: NCI 60 screen, NCI/ADR-RES; type: cell-based; details: Homo sapiens, Ovarian
Description: as §1

SNB-75 = assay: NCI 60 screen, SNB-75; type: cell-based; details: Homo sapiens, CNS
Description: as §1

SK-MEL-5 = assay: NCI 60 screen, SK-MEL-5; type: cell-based; details: Homo sapiens, Melanoma
Description: as §1

T-47D = assay: NCI 60 screen, T-47D; type: cell-based; details: Homo sapiens, T47D, Breast
Description: as §1

HCC-2998 = assay: NCI 60 screen, HCC-2998; type: cell-based; details: Homo sapiens, Colon
Description: as §1

SK-MEL-2 [1] = assay: NCI 60 screen, SK-MEL-2 (second line); type: cell-based; details: Homo sapiens; Melanoma, SK-MEL-2 (second of two lines so named, r38)
Description: as §1

MDA-MB-468 = assay: NCI 60 screen, MDA-MB-468; type: cell-based; details: Homo sapiens, Breast
Description: as §1

OVCAR-3 = assay: NCI 60 screen, OVCAR-3; type: cell-based; details: Homo sapiens, Ovarian
Description: as §1

SF-539 = assay: NCI 60 screen, SF-539; type: cell-based; details: Homo sapiens, CNS
Description: as §1

HCT15 = assay: NCI 60 screen, HCT15; type: cell-based; details: Homo sapiens, HCT-15, Colon
Description: as §1

HL-60(TB) = assay: NCI 60 screen, HL-60(TB); type: cell-based; details: Homo sapiens, Leukemia
Description: as §1

SK-MEL-2 [2] = assay: NCI 60 screen, SK-MEL-2 (first line); type: cell-based; details: Homo sapiens; Melanoma, SK-MEL-2 (first of two lines so named, r37)
Description: as §1

SF-295 = assay: NCI 60 screen, SF-295; type: cell-based; details: Homo sapiens, CNS
Description: as §1

SN12C = assay: NCI 60 screen, SN12C; type: cell-based; details: Homo sapiens, Renal
Description: as §1

OVCAR-8 = assay: NCI 60 screen, OVCAR-8; type: cell-based; details: Homo sapiens, Ovarian
Description: as §1

UO-31 = assay: NCI 60 screen, UO-31; type: cell-based; details: Homo sapiens, Renal
Description: as §1

NCI-H23 = assay: NCI 60 screen, NCI-H23; type: cell-based; details: Homo sapiens, Non-Small Cell Lung
Description: as §1

EKVX = assay: NCI 60 screen, EKVX; type: cell-based; details: Homo sapiens, Non-Small Cell Lung
Description: as §1

SK-OV-3 = assay: NCI 60 screen, SK-OV-3; type: cell-based; details: Homo sapiens, Ovarian
Description: as §1

SR = assay: NCI 60 screen, SR; type: cell-based; details: Homo sapiens, Leukemia
Description: as §1

SW-620 = assay: NCI 60 screen, SW-620; type: cell-based; details: Homo sapiens, Colon
Description: as §1

DU-145 = assay: NCI 60 screen, DU-145; type: cell-based; details: Homo sapiens, Prostatic
Description: as §1

MDA-MB-435 = assay: NCI 60 screen, MDA-MB-435; type: cell-based; details: Homo sapiens, Melanoma
Description: as §1

MDA-MB-231/ATCC = assay: NCI 60 screen, MDA-MB-231/ATCC; type: cell-based; details: Homo sapiens, Breast
Description: as §1

HOP-92 = assay: NCI 60 screen, HOP-92; type: cell-based; details: Homo sapiens, Non-Small Cell Lung
Description: as §1

SF-268 = assay: NCI 60 screen, SF-268; type: cell-based; details: Homo sapiens, CNS
Description: as §1

RXF393 = assay: NCI 60 screen, RXF393; type: cell-based; details: Homo sapiens, RXF 393, Renal
Description: as §1

NCI-460 = assay: NCI 60 screen, NCI-460; type: cell-based; details: Homo sapiens, Non-Small Cell Lung
Description: as §1

SNB-19 = assay: NCI 60 screen, SNB-19; type: cell-based; details: Homo sapiens, CNS
Description: as §1

NCI-H522 = assay: NCI 60 screen, NCI-H522; type: cell-based; details: Homo sapiens, Non-Small Cell Lung
Description: as §1

KM12 = assay: NCI 60 screen, KM12; type: cell-based; details: Homo sapiens, Colon
Description: as §1

OVCAR-5 = assay: NCI 60 screen, OVCAR-5; type: cell-based; details: Homo sapiens, Ovarian
Description: as §1

PC-3 = assay: NCI 60 screen, PC-3; type: cell-based; details: Homo sapiens, Prostatic
Description: as §1

MALME-3M = assay: NCI 60 screen, MALME-3M; type: cell-based; details: Homo sapiens, Melanoma
Description: as §1

IGROV1 = assay: NCI 60 screen, IGROV1; type: cell-based; details: Homo sapiens, IGROV-1, Ovarian
Description: as §1

HOP-62 = assay: NCI 60 screen, HOP-62; type: cell-based; details: Homo sapiens, Non-Small Cell Lung
Description: as §1

HCT-116 = assay: NCI 60 screen, HCT-116; type: cell-based; details: Homo sapiens, Colon
Description: as §1

UACC-62 = assay: NCI 60 screen, UACC-62; type: cell-based; details: Homo sapiens, Melanoma
Description: as §1

A549/ATCC = assay: NCI 60 screen, A549/ATCC; type: cell-based; details: Homo sapiens, Non-Small Cell Lung
Description: as §1

BT-549 = assay: NCI 60 screen, BT-549; type: cell-based; details: Homo sapiens, Breast
Description: as §1

NCI-H226 = assay: NCI 60 screen, NCI-H226; type: cell-based; details: Homo sapiens, Non-Small Cell Lung
Description: as §1

CCRF-CEM = assay: NCI 60 screen, CCRF-CEM; type: cell-based; details: Homo sapiens, Leukemia
Description: as §1

K-562 = assay: NCI 60 screen, K-562; type: cell-based; details: Homo sapiens, K562, Leukemia
Description: as §1

LOX IMVI = assay: NCI 60 screen, LOX IMVI; type: cell-based; details: Homo sapiens, Melanoma
Description: as §1

MCF7 = assay: NCI 60 screen, MCF7; type: cell-based; details: Homo sapiens, Breast
Description: as §1

ACHN = assay: NCI 60 screen, ACHN; type: cell-based; details: Homo sapiens, Renal
Description: as §1

M14 = assay: NCI 60 screen, M14; type: cell-based; details: Homo sapiens, Melanoma
Description: as §1

A498 = assay: NCI 60 screen, A498; type: cell-based; details: Homo sapiens, Renal
Description: as §1

HS 578T = assay: NCI 60 screen, HS 578T; type: cell-based; details: Homo sapiens, Breast
Description: as §1

OVCAR-4 = assay: NCI 60 screen, OVCAR-4; type: cell-based; details: Homo sapiens, Ovarian
Description: as §1

MOLT-4 = assay: NCI 60 screen, MOLT-4; type: cell-based; details: Homo sapiens, Leukemia
Description: as §1

NCI-322M = assay: NCI 60 screen, NCI-322M; type: cell-based; details: Homo sapiens, Non-Small Cell Lung
Description: as §1

UACC-257 = assay: NCI 60 screen, UACC-257; type: cell-based; details: Homo sapiens, Melanoma
Description: as §1

HT29 = assay: NCI 60 screen, HT29; type: cell-based; details: Homo sapiens, HT-29, Colon
Description: as §1

U251 = assay: NCI 60 screen, U251; type: cell-based; details: Homo sapiens, U-251, CNS
Description: as §1

COLO 205 = assay: NCI 60 screen, COLO 205; type: cell-based; details: Homo sapiens, Colon
Description: as §1

Cn1ccnc1C(=O)/C=C/c1ccc(CC(=O)Nc2ccccc2)cc1 [Compound 27, (E)-2-(4-(3-(1-methyl-1H-imidazol-2-yl)-3-oxoprop-1-en-1-yl)phenyl)-N-phenylacetamide]
GI50 (786-0): 2.67 µM
GI50 (RPMI-8226): 1.45 µM
GI50 (TK-10): 7.44 µM
GI50 (NCI/ADR-RES): 7.54 µM
GI50 (SNB-75): 25 µM
GI50 (SK-MEL-5): 4.18 µM
GI50 (T-47D): 5.23 µM
GI50 (HCC-2998): 4.42 µM
GI50 (SK-MEL-2 [1]): 5.69 µM
GI50 (MDA-MB-468): 1.71 µM
GI50 (OVCAR-3): 1.87 µM
GI50 (SF-539): 2.43 µM
GI50 (HCT15): 1.25 µM
GI50 (HL-60(TB)): 1.57 µM
GI50 (SK-MEL-2 [2]): 5.06 µM
GI50 (SF-295): 5.44 µM
GI50 (SN12C): 3.84 µM
GI50 (OVCAR-8): 6.44 µM
GI50 (UO-31): 2.77 µM
GI50 (NCI-H23): 3.24 µM
GI50 (EKVX): 6.28 µM
GI50 (SK-OV-3): 9.3 µM
melting point: 184 to 186 °C
GI50 (SR): 1.16 µM
GI50 (SW-620): 2.75 µM
GI50 (DU-145): 1.1 µM
GI50 (MDA-MB-435): 4.3 µM
GI50 (MDA-MB-231/ATCC): 2.37 µM
GI50 (HOP-92): 6.63 µM
GI50 (SF-268): 3.75 µM
GI50 (RXF393): 3.86 µM
GI50 (NCI-460): 2.32 µM
GI50 (SNB-19): 1.9 µM
GI50 (NCI-H522): 3.2 µM
GI50 (KM12): 3.39 µM
GI50 (OVCAR-5): 4.19 µM
GI50 (PC-3): 3.29 µM
GI50 (MALME-3M): 5.93 µM
GI50 (IGROV1): 2.11 µM
GI50 (HOP-62): 3.75 µM
GI50 (HCT-116): 1.68 µM
GI50 (UACC-62): 4.13 µM
GI50 (A549/ATCC): 6.6 µM
GI50 (BT-549): 2.95 µM
GI50 (NCI-H226): 8.59 µM
GI50 (CCRF-CEM): 2.37 µM
GI50 (K-562): 1.07 µM
GI50 (LOX IMVI): 1.03 µM
GI50 (MCF7): 1.13 µM
GI50 (ACHN): 5.24 µM
GI50 (M14): 4.55 µM
GI50 (A498): 6.08 µM
GI50 (HS 578T): 1.42 µM
GI50 (OVCAR-4): 4.12 µM
GI50 (MOLT-4): 4.3 µM
GI50 (NCI-322M): 2.57 µM
GI50 (UACC-257): 6.98 µM
GI50 (HT29): 2.4 µM
GI50 (U251): 1.57 µM
GI50 (COLO 205): 3.77 µM
